Laboratory results from ChEMBL document CHEMBL1667731, “N-hydroxypyridones, phenylhydrazones, and a quinazolinone from Isaria farinosa” (J Nat Prod, 2011).

Columns and labels:
[1] = test system: Candida albicans; assay: Antifungal activity against Candida albicans CGMCC 2.2086 after 24 hrs; type: functional, organism-based; conditions: CGMCC 2.2086, 24 h
[2] = test system: Streptococcus pneumoniae; assay: Antibacterial activity against Streptococcus pneumoniae CGMCC 1.1692 after 24 hrs; type: functional, organism-based; conditions: CGMCC 1.1692, 24 h
[3] = test system: A549; assay: Cytotoxicity against human A549 cells assessed as inhibition of cell viability by MTT assay; type: functional, cell-based
[4] = test system: Staphylococcus aureus; assay: Antibacterial activity against Staphylococcus aureus CGMCC 1.2465 after 24 hrs; conditions: CGMCC 1.2465, 24 h

Structure (SMILES)	IC50 [1] [µM]	IC50 [2] [µM]	IC50 [4] [µM]	IC50 ([3]; Homo sapiens, A549) [µM]	IC50 ([3]; a549) [µM]
CC[C@@H](C)C[C@@H](C)/C=C(C)/C=C/C=C/C(=O)c1c(O)c(-c2ccc(O)cc2)c[nH]c1=O [MILITARINONE B]	43.4	2.6	2.11	> 120	–
CC1(C)S[C@@H]2[C@H](NC(=O)[C@H](N)c3ccccc3)C(=O)N2[C@H]1C(=O)O [AMPICILLIN]	–	1.08	0.06	–	–
CC[C@@H](C)C[C@@H](C)/C=C(C)/C=C/C=C/C(=O)c1c(O)c([C@]23CC[C@H](CC2)O3)cn(O)c1=O [MILITARINONE F]	–	> 150	> 150	> 120	> 120
C/C(=N\Nc1ccccc1C(=O)O)C(=O)NCC(=O)O [FARYLHYDRAZONE A]	–	> 150	> 150	> 120	> 120
CC[C@@H](C)C[C@@H](C)/C=C(C)/C=C/C=C/C(=O)c1c(O)c([C@]2(O)CC[C@@H](O)CC2)cn(O)c1=O [MILITARINONE A]	> 150	> 150	> 150	1.75	–

Continued, in another order:

IC50 [1] [µM]	IC50 [2] [µM]	IC50 [4] [µM]	Structure (SMILES)	IC50 ([3]; Homo sapiens, A549) [µM]	IC50 ([3]; a549) [µM]
0.72	–	–	C[C@@H]1[C@H](O)[C@@H](C)/C=C/C=C/C=C/C=C/C=C/C=C/C=C/[C@H](O[C@@H]2O[C@H](C)[C@@H](O)[C@H](N)[C@@H]2O)C[C@@H]2O[C@](O)(C[C@@H](O)C[C@@H](O)[C@H](O)CC[C@@H](O)C[C@@H](O)CC(=O)O[C@H]1C)C[C@H](O)[C@H]2C(=O)O [AMPHOTERICIN B]	–	–
–	> 150	> 150	C/C(=N\Nc1ccccc1C(=O)O)C(=O)O [FARYLHYDRAZONE B]	> 120	> 120
–	> 150	> 150	O=c1[nH]c(Cc2ccc(O)cc2)nc2ccccc12	> 120	> 120
> 150	> 150	> 150	CC[C@@H](C)C[C@@H](C)/C=C(C)/C=C/C=C/C(=O)c1c(O)c(C2=CC[C@@H](O)CC2)cn(O)c1=O [MILITARINONE E]	1.59	–
